Laboratory results taken from paper PMC7560456, “Synthesis, Selected Transformations, and Biological Activity of Alkoxy Analogues of Lepidilines A and C” (Materials, 2020).
Entries after “also recorded” stand apart in the source; their conditions may differ. Counter-ions that a name gives are not always drawn. Each block holds one compound with its values, some of them ahead of it.

Assays:
HL-60 cells = assay: MTT in vitro cytotoxicity assay, HL-60; assay type: cell-based; conditions: concentration required to inhibit metabolic activity by 50%, mean ± SEM
Procedure: (§1) The promyelocytic leukemia HL-60 and breast cancer adenocarcinoma MCF-7 cell lines were purchased from the European Collection of Cell Cultures (ECACC). […] MCF-7 cells were maintained in Minimum Essential Medium Eagle (Sigma Aldrich, St. Louis, MO, USA) supplemented with 2 mM glutamine and MEM nonessential amino-acid solution (Sigma Aldrich, St. Louis, MO, USA). Both media were supplemented with 10% heat-inactivated fetal bovine serum (Biological Industries, Beit-Haemek, Israel) and antibiotics (100 U/mL penicillin and 100 μg/mL streptomycin) (Sigma-Aldrich, St. Louis, MO, USA). Human umbilical vein endothelial cells (HUVECs) and human mammary gland/breast cell line MCF-10A were purchased from the American Type Culture Collection (ATCC). HUVECs were cultured using the EGM-2 Endothelial Medium BulletKit, whereas MCF-10A was cultured using the MEGM Mammary Epithelial BulletKit, both purchased from Lonza (Lonza, Walkersville, MD, USA).
(§2) The MTT (3-(4, 5-dimethylthiazol-2-yl)-2, 5-diphenyltetrazolium bromide) assay was performed according to the known procedure. Cells were seeded into 24-well plates at a density of 8 × 10^4/mL and left to grow for 24 h. After being cultured for 48 h with various concentrations of the tested compounds, cells were incubated with MTT solution (5 mg/mL in phosphate-buffered saline) for 2 h. Then, the plates were centrifuged and the supernatant was discarded. Dimethyl sulfoxide (DMSO; 1 mL) was added to each well to dissolve the blue formazan product, whose absorbance was measured at 560 nm using a FlexStation 3 Multi-Mode Microplate Reader (Molecular Devices, LLC, CA, USA). The untreated cells were used as control. The data were expressed as mean ± SEM of three independent experiments.

MCF-7 cells = assay: MTT in vitro cytotoxicity assay, MCF-7; assay type: cell-based; conditions: concentration required to inhibit metabolic activity by 50%, mean ± SEM
Procedure: as §1, §2

MCF-10A cells = assay: MTT in vitro cytotoxicity assay, MCF-10A (normal cells); assay type: cell-based, human; conditions: 48 h, mean ± SEM
Procedure: as §1, §2

HUVECs = assay: MTT in vitro cytotoxicity assay, HUVEC (normal cells); assay type: cell-based, human; conditions: 48 h, mean ± SEM
Procedure: as §1, §2

PACA2 cell line = tested on: PACA2 cell line; set-up: method as in PMID 12932133; conditions: pancreatic adenocarcinoma; cited from earlier work
UMUC3 cell line = tested on: UMUC3 cell line; set-up: method as in PMID 12932133; conditions: bladder carcinoma; cited from earlier work
FDIGROV cell line = tested on: FDIGROV cell line; set-up: method as in PMID 12932133; conditions: ovarian carcinoma; cited from earlier work
MDA231 cell line = tested on: MDA231 cell line; set-up: method as in PMID 12932133; conditions: breast carcinoma; cited from earlier work

melting point: 111 to 113 °C
Compound: Cc1ccc(COn2c[n+](OCc3ccc(C)cc3)c(C)c2C)cc1.[Br-] [5c, 1,3-Di-(4-methylbenzyloxy)-4,5-dimethylimidazolium bromide]
IC50 (HL-60 cells; Homo sapiens, HL-60, 48 h): 4880 ± 180 nM | IC50 (MCF-7 cells; Homo sapiens, MCF7, 48 h): 24200 ± 460 nM

melting point: 116 to 117 °C
Compound: Cc1c(C)n(OCc2ccccc2)c(=S)n1Cc1ccccc1 [7a, 1-Benzyl-3-benzyloxy-4,5-dimethylimidazole-2-thione]

melting point: 141 to 143 °C
Compound: Cc1cc(C)cc(COn2c[n+](OCc3cc(C)cc(C)c3)c(C)c2C)c1.[Br-] [5d, 1,3-Di-(3,5-dimethylbenzyloxy)-4,5-dimethylimidazolium bromide]
IC50 (HL-60 cells; Homo sapiens, HL-60, 48 h): 1460 ± 20 nM | IC50 (MCF-7 cells; Homo sapiens, MCF7, 48 h): 8570 ± 370 nM

Compound: Cc1ccccc1CO[n+]1cn(OCc2ccccc2)c(C)c1C [5e, 1-Benzyloxy-3-(2-methylbenzyloxy)-4,5-dimethylimidazolium bromide]
IC50 (HL-60 cells; Homo sapiens, HL-60, 48 h): 3160 ± 180 nM | IC50 (MCF-7 cells; Homo sapiens, MCF7, 48 h): 11600 ± 250 nM

melting point: 163 to 166 °C
Compound: c1ccc(CO[n+]2cn(Cc3ccccc3)c(-c3ccccc3)c2-c2ccccc2)cc1 (as salt: phosphate) [6a, 1-Benzyl-3-benzyloxy-4,5-diphenylimidazolium hexafluorophosphate]

Compound: Cc1cc(C)cc(CO[n+]2cn(OC34CC5CC(CC(C5)C3)C4)c(C)c2C)c1 [6b, 1-Adamantyloxy-3-(3,5-dimethylbenzyloxy)-4,5-dimethylimidazolium hexafluorophosphate]
IC50 (HL-60 cells; Homo sapiens, HL-60, 48 h): 370 ± 10 nM | IC50 (MCF-7 cells; Homo sapiens, MCF7, 48 h): 2520 ± 30 nM

Compound: 1-Adamantyloxy-3-(4-methylbenzyloxy)-4,5-dimethylimidazolium bromide [5j]
IC50 (MCF-10A cells): 1690 ± 40 nM | IC50 (HUVECs): 1940 ± 10 nM | IC50 (HL-60 cells; 48 h): 390 ± 10 nM | IC50 (MCF-7 cells; 48 h): 2630 ± 30 nM

melting point: 101 to 102 °C
Compound: Cc1ccc(COn2c[n+]([O-])c(C)c2C)cc1 [3e, 1-(4-Methylbenzyloxy)-4,5-dimethyl-1H-imidazole 3-oxide]

melting point: 87 to 88 °C
Compound: Cc1c(C)n(OCc2ccccc2)c(=S)n1OCc1ccccc1 [7c, 1,3-Dibenzyloxy-4,5-dimethylimidazole-2-thione]

melting point: 148 to 150 °C
Compound: Cc1c(C)[n+](OCc2ccccc2)cn1Cc1ccccc1.[Br-] [4a, 1-Benzyl-3-benzyloxy-4,5-dimethylimidazolium bromide]

melting point: 180 to 182 °C
Compound: [Br-].c1ccc(CO[n+]2c(C34CC5CC(CC(C5)C3)C4)[nH]c(-c3ccccc3)c2-c2ccccc2)cc1 [4d, 1-Adamantyl-3-benzyloxy-4,5-diphenylimidazolium bromide]

melting point: 103 to 105 °C
Compound: Cc1c(C)[n+]([O-])cn1OCc1ccccc1 [3c, 1-Benzyloxy-4,5-dimethyl-1H-imidazole 3-oxide]

melting point: 167 to 169 °C
Compound: [Br-].c1ccc(CO[n+]2cn(Cc3ccccc3)c(-c3ccccc3)c2-c2ccccc2)cc1 [4b, 1-Benzyl-3-benzyloxy-4,5-diphenylimidazolium bromide]
IC50 (MCF-10A cells; Homo sapiens, MCF-10A): 570 ± 10 nM | IC50 (HUVECs; Homo sapiens, HUVEC): 970 ± 30 nM | IC50 (HL-60 cells; 48 h): 700 ± 30 nM | IC50 (MCF-7 cells; 48 h): 1530 ± 90 nM

Compound: Cc1c(C)[n+](Cc2ccccc2)c(C)n1Cc1ccccc1 [lepidiline B]
activity against PACA2 cell line (PACA2 cell line): promising activity; also recorded: highly cytotoxic | activity against UMUC3 cell line (UMUC3 cell line): promising activity; also recorded: highly cytotoxic | activity against FDIGROV cell line (FDIGROV cell line): some activity; also recorded: highly cytotoxic | activity against MDA231 cell line (MDA231 cell line): promising activity; also recorded: highly cytotoxic

melting point: 89 to 91 °C
Compound: Cc1ccccc1COn1c[n+]([O-])c(C)c1C [3d, 1-(2-Methylbenzyloxy)-4,5-dimethyl-1H-imidazole 3-oxide]

melting point: 132 to 133 °C
Compound: Cc1ccccc1COn1c[n+](OCc2ccccc2C)c(C)c1C.[Br-] [5b, 1,3-Di-(2-methylbenzyloxy)-4,5-dimethylimidazolium bromide]
IC50 (HL-60 cells; Homo sapiens, HL-60, 48 h): 1540 ± 10 nM | IC50 (MCF-7 cells; Homo sapiens, MCF7, 48 h): 8300 ± 10 nM

Compound: Cc1c(C)[n+](Cc2ccccc2)cn1Cc1ccccc1 [lepidiline A]
activity against FDIGROV cell line (FDIGROV cell line): some activity

Compound: 1-Adamantyloxy-3-(3,5-dimethylbenzyloxy)-4,5-dimethylimidazolium bromide [5k]
IC50 (MCF-10A cells): 1360 ± 10 nM | IC50 (HUVECs): 1820 ± 80 nM | IC50 (HL-60 cells; 48 h): 360 ± 10 nM | IC50 (MCF-7 cells; 48 h): 2400 ± 60 nM

melting point: 124 to 126 °C
Compound: Cc1ccc(CO[n+]2cn(OCc3ccccc3)c(C)c2C)cc1.[Br-] [5f, 1-Benzyloxy-3-(4-methylbenzyloxy)-4,5-dimethylimidazolium bromide]
IC50 (HL-60 cells; Homo sapiens, HL-60, 48 h): 2910 ± 80 nM | IC50 (MCF-7 cells; Homo sapiens, MCF7, 48 h): 16600 ± 1060 nM

melting point: 96 to 98 °C
Compound: Cc1cc(C)cc(COn2c[n+]([O-])c(C)c2C)c1 [3f, 1-(3,5-Dimethylbenzyloxy)-4,5-dimethyl-1H-imidazole 3-oxide]

Compound: 1-Adamantyloxy-3-benzyloxy-4,5-dimethylimidazolium bromide [5h]
IC50 (MCF-10A cells): 6400 ± 30 nM | IC50 (HUVECs): 3700 ± 230 nM | IC50 (HL-60 cells; 48 h): 880 ± 80 nM | IC50 (MCF-7 cells; 48 h): 6760 ± 80 nM

Compound: c1ccc(CO[n+]2cn(Cc3ccccc3)c(-c3ccccc3)c2-c2ccccc2)cc1 [6a, 1-Benzyl-3-benzyloxy-4,5-diphenylimidazolium hexafluorophosphate]
IC50 (HL-60 cells; Homo sapiens, HL-60, 48 h): 640 ± 20 nM | IC50 (MCF-7 cells; Homo sapiens, MCF7, 48 h): 1290 ± 10 nM

melting point: 150 to 152 °C
Compound: Cc1cc(C)cc(CO[n+]2cn(OC34CC5CC(CC(C5)C3)C4)c(C)c2C)c1 (as salt: phosphate) (hydrate or solvate) [6b, 1-Adamantyloxy-3-(3,5-dimethylbenzyloxy)-4,5-dimethylimidazolium hexafluorophosphate]

Compound: 1-Adamantyloxy-3-(2-methylbenzyloxy)-4,5-dimethylimidazolium bromide [5i]
IC50 (HUVECs): 3960 ± 80 nM | IC50 (HL-60 cells; 48 h): 670 ± 10 nM | IC50 (MCF-7 cells; 48 h): 5950 ± 350 nM

melting point: 196 to 197 °C
Compound: Cc1[nH]c(C23CC4CC(CC(C4)C2)C3)[n+](OCc2ccccc2)c1C.[Br-] [4c, 1-Adamantyl-3-benzyloxy-4,5-dimethylimidazolium bromide]

melting point: 110 to 111 °C
Compound: Cc1c(C)[n+](OCc2ccccc2)cn1OCc1ccccc1.[Br-] [5a, 1,3-Dibenzyloxy-4,5-dimethylimidazolium bromide]
